# Read-outs that look alike come from different tables or passages of the source.
# Assays:
# [1] = system: Gli1 mRNA expression in the Hh-dependent murine BCC cell line ASZ001; test: Hh inhibition: Gli1 mRNA expression in ASZ001 cells (qPCR); assay type: cell-based; conditions: for IC50: ASZ001 cells
# Experimental: In order to continue SAR exploration of this region of the scaffold, efforts sought to synthesize and evaluate analogues that continue the scaffold truncation that was previously probed by removing the phenyl ring on the ‘right side’ of the scaffold and directly appending the 3-phenolic carboxylic acid of 2 to the piperazine amine to provide analogue 3. This analogue was evaluated for its ability to decrease Gli1 mRNA expression in the Hh-dependent murine BCC cell line ASZ001.
# (§1) General protocols for cell culture, qPCR, and Hh inhibition in ASZ001 cells, C3H10T1/2 cells, and Sufu^−/− MEFs cells are as previously described (Pace et al. “Repurposing the clinically efficacious antifungal agent itraconazole as an anticancer chemotherapeutic. J. Med. Chem. 2016, 59, 3635-3649; Maschinot et al. “Synthesis and evaluation of third generation vitamin D3 analogues as inhibitors of Hedgehog signaling.” Eur. J. Med. Chem. 2019, 162, 495-506.). HC-04 cells were maintained in Dulbecco's modified Eagle's medium (Gibco Life Technologies) supplemented with 10% heat-inactivated fetal bovine serum (Gibco) and 1% pen-strep (Gibco) at 37° C. in 5% CO2. Cells were split 1:5 every 2-3 days, once they reached ˜80% confluency. Antiproliferation assay against HC-04 cells was using MTS method. The general protocol was the same as described earlier. (Banerjee et al. “Evaluation of vitamin D3 A-ring analogues as hedgehog pathway inhibitors.” Bioorg. Med. Chem. Lett. 2012, 22, pp. 1330-1334.) All data were analyzed with GraphPad Prism 5 and reported values represent the mean±SEM for at least two separate experiments carried out in triplicate for qPCR assay; or performed for at least three separate experiments carried out in quadruplicate for MTS assay.
# [2] = PBS solubility
# [3] = Microsomal stability in human liver microsomes; conditions: for half-life / microsomal CLint: human; for half-life / microsomal CLint / Microsomal Stability T1/2 / Microsomal Stability Clint: human liver microsomes; for Microsomal Stability Clint: predicted intrinsic clearance
# [4] = human, microsomes
# [5] = system: HC-04 cells; test: in vitro; assay type: cell-based, human
# Experimental: (§2) The activity for both metabolites prompted a study of their PK profile (Table 3). […] In addition, significant improvements in solubility at pH 7.4 and pH 4.0 compared to ITZ were found for analogue 21. Finally, the general toxicity of compounds 11 and 21 were evaluated by exploring their anti-proliferative activity in HC-04 cells, a human hepatocyte-derived cell line that abundantly expresses drug metabolizing enzymes (Table 5).
# as §1
# [6] = system: Gli1 mRNA in the Hh-dependent mouse embryonic fibroblast C3H10T1/2 cell line; test: Gli1 mRNA down-regulation in C3H10T1/2 cells (qPCR); assay type: cell-based; conditions: Mean ± SEM
# Experimental: (§3) Both metabolites retain potent inhibition of Hh signaling (Table 3). […] Based on the improved activity of the truncated analogue 21, which contains approximately half of the intact ITZ scaffold, this analogue was also evaluated in Sufu^−/− mouse embryonic fibroblasts (MEFs) to determine whether Smo is still the most likely target of the metabolite.
# as §1
# [7] = in vitro; assay type: cell-based, human; conditions: human
# Experimental: as §2, §1
# [8] = system: Sufu−/− mouse embryonic fibroblasts (MEFs); test: Hh inhibition in Sufu−/− MEFs; assay type: cell-based
# Experimental: as §3
# General protocols for cell culture, qPCR, and Hh inhibition in ASZ001 cells, C3H10T1/2 cells, and Sufu^−/− MEFs cells are as previously described (Pace et al. “Repurposing the clinically efficacious antifungal agent itraconazole as an anticancer chemotherapeutic. J. Med. Chem. 2016, 59, 3635-3649; Maschinot et al. “Synthesis and evaluation of third generation vitamin D3 analogues as inhibitors of Hedgehog signaling.” Eur. J. Med. Chem. 2019, 162, 495-506.). […] (Banerjee et al. “Evaluation of vitamin D3 A-ring analogues as hedgehog pathway inhibitors.” Bioorg. Med. Chem. Lett. 2012, 22, pp. 1330-1334.) All data were analyzed with GraphPad Prism 5 and reported values represent the mean±SEM for at least two separate experiments carried out in triplicate for qPCR assay; or performed for at least three separate experiments carried out in quadruplicate for MTS assay.
# [9] = Mus musculus, Gli1 mRNA expression, Mean ± SEM of at least two experiments in triplicate, read-out: ASZ001, IC50
# [10] = Gli1 mRNA expression, Mean ± SEM of at least two experiments in triplicate, read-out: ASZ001, IC50
# [11] = C3H 10T1/2, Gli1 expression up-regulated by recombinant mouse sonic hedgehog (SHh), read-out: C3H10T1/2, IC50, SHh
# [12] = Mus musculus, C3H 10T1/2, Gli1 expression up-regulated by oxysterols (OHCs), read-out: C3H10T1/2, IC50, OHCs
compound,measurement,setting,value
C[C@]1(c2ccc(Cl)cc2Cl)OC[C@@H](COc2ccc(N3CCN(C(=O)/C=C/c4cccc(O)c4)CC3)cc2)O1 [Compound 12],IC50,[1]; [9],220 ± 30 nM
same,loss in Hh inhibitory activity,"[1]; trans-alkene 12 compared with 11, ASZ001",approximately 3 fold
C[C@]1(c2ccc(Cl)cc2Cl)OC[C@@H](COc2ccc(N3CCN(C(=O)c4ccc(O)cc4)CC3)cc2)O1 [Compound 4],IC50,[1]; [9],580 nM
C[C@]1(c2ccc(Cl)cc2Cl)OC[C@@H](COc2ccc(N3CCN(C(=O)c4ccccn4)CC3)cc2)O1 [Compound 5],IC50,[1]; [9],1420 ± 300 nM
C[C@]1(c2ccc(Cl)cc2Cl)OC[C@@H](COc2ccc(N3CCN(C(=O)c4ccc([N+](=O)[O-])cc4)CC3)cc2)O1 [Compound 8],IC50,[1]; [9],160 nM
C[C@]1(c2ccc(Cl)cc2Cl)OCC(COc2ccc(N3CCN(C(=O)CCc4ccc(O)c(O)c4)CC3)cc2)O1 (some centres unmarked) [Compound 22],IC50,[1]; [9],89 nM
same,solubility,"[2]; pH 7.4, aqueous buffer",0.84 µM
same,half-life,[3],6.6 min
same,microsomal CLint,[3],104.7 ± 0.1 µL/min/mg
C[C@@]1(c2ccc(Cl)cc2Cl)OCC(COc2ccc(N3CCN(C(=O)N/N=C/c4cccc(O)c4)CC3)cc2)O1 (some centres unmarked) [Compound 20],less active (Hh inhibition),"[1]; 2R,4R-trans 20 compared with cis 18, ASZ001",approximately 5 fold
same,IC50,[1]; [9],580 nM
"Itraconazole [ITZ, reference compound]",IC50,[1]; [10],140 ± 20 nM
same,Microsomal Stability T1/2,[4],27.0 ± 6.2 min
same,"Solubility, PBS pH 7.4",,0.80 μM
same,GI50,[5],> 50000 nM
same,IC50,"[6]; Gli1 expression up-regulated by oxysterols (OHCs), read-out: C3H10T1/2, IC50, OHCs",5900 ± 1300 nM
same,IC50,"[6]; Gli1 expression up-regulated by recombinant mouse sonic hedgehog (SHh), read-out: C3H10T1/2, IC50, SHh",240 ± 200 nM
"N-(4-(4-(((2S,4R)-2-(2,4-Dichlorophenyl)-2-Methyl-1,3-Dioxolan-4-yl)Methoxy)Phenyl)Piperazin-l-yl)-2-((3-hydroxyphenyl)methylene)Hydrazinecarboxamide [Compound 18]",IC50,[1]; [10],120 nM
C[C@]1(c2ccc(Cl)cc2Cl)OC[C@@H](COc2ccc(N3CCN(C(=O)Cc4cccc(O)c4)CC3)cc2)O1 [Compound 10],IC50,[1]; [9],380 ± 40 nM
same,"Solubility, PBS pH 4.0",[2],0.25 μM
same,"Solubility, PBS pH 7.4",[2],0.13 μM
same,more stable (HLM stability),"[3]; 10 compared with 11, human liver microsomes",approximately 6.5 fold
same,Microsomal Stability T1/2,[3],20.4 ± 0.4 min
same,Microsomal Stability Clint,[3],33.9 ± 0.6 µL/min/mg
COc1cccc(CCC(=O)N2CCN(c3ccc(OC[C@@H]4CO[C@](C)(c5ccc(Cl)cc5Cl)O4)cc3)CC2)c1 [Compound 16],IC50,[1]; [9],460 nM
C[C@]1(c2ccc(Cl)cc2Cl)OC[C@@H](COc2ccc(N3CCN(C(=O)c4cccc(O)c4)CC3)cc2)O1 [Compound 3],IC50,[1]; [9],260 nM
same,"Solubility, PBS pH 4.0",[2],0.31 μM
same,"Solubility, PBS pH 7.4",[2],0.17 μM
same,Microsomal Stability T1/2,[3],15.9 ± 0.2 min
same,Microsomal Stability Clint,[3],43 ± 0.6 µL/min/mg
C[C@]1(c2ccc(Cl)cc2Cl)OC[C@@H](COc2ccc(N3CCN(C(=O)CCc4cccc(O)c4)CC3)cc2)O1 [Compound 11],IC50,"[1]; Mus musculus, read-out: IC50 value (anti-Hh activity)",81 nM
same,IC50,[1]; [9],81 nM
same,"Solubility, PBS pH 4.0",[2],0.13 μM
same,"Solubility, PBS pH 7.4",[2],0.03 μM
same,Microsomal Stability T1/2,[3],3.2 min
same,Microsomal Stability Clint,[3],218 ± 9.7 µL/min/mg
same,GI50,[5]; human,13200 nM
same,GI50,[7],13200 ± 500 nM
same,IC50,[6]; [11],170 ± 90 nM
same,IC50,[6]; [12],650 ± 70 nM
C[C@]1(c2ccc(Cl)cc2Cl)OC[C@@H](COc2ccc(N3CCN(C(=O)CCc4ccccc4)CC3)cc2)O1 [Compound 15],IC50,[1]; [9],230 nM
C[C@]1(c2ccc(Cl)cc2Cl)OC[C@@H](COc2ccc(N3CCN(C(=O)c4ccc(N)cc4)CC3)cc2)O1 [Compound 9],IC50,[1]; [9],280 nM
"C[C@]1(c2ccc(Cl)cc2Cl)OC[C@@H](COc2ccc(N3CCN(C(=O)CCCc4ccc(O)cc4)CC3)cc2)O1 [Compound 17, 4-Hydroxy-N-(4-(4-(((2S,4R)-2-(2,4-Dichlorophenyl)-2-Methyl-1,3-Dioxolan-4-yl)Methoxy)Phenyl)Piperazin-1-yl)Phenylbutyric Amide]",IC50,[1]; [9],470 nM
"CS(=O)(=O)c1ccc(C(=O)Nc2ccc(Cl)c(-c3ccccn3)c2)c(Cl)c1 [Vismodegib, reference compound]",GI50,[7],> 100000 nM
same,IC50,[6]; [11],22 ± 20 nM
same,IC50,[6]; [12],10 ± 12 nM
"C[C@]1(c2ccc(Cl)cc2Cl)OC[C@@H](COc2ccc(N3CCN(C(=O)/C=C/c4ccc(O)cc4)CC3)cc2)O1 [Compound 14, 4-Hydroxy-N-(4-(4-(((2S,4R)-2-(2,4-Dichlorophenyl)-2-Methyl-1,3-Dioxolan-4-yl)Methoxy)Phenyl)Piperazin-1-yl)Cinnamamide]",IC50,[1]; [9],360 ± 50 nM
"C[C@]1(c2ccc(Cl)cc2Cl)OC[C@@H](COc2ccc(N3CCNCC3)cc2)O1 [Compound 21, 1-(4-(((2S,4R)-2-(2,4-Dichlorophenyl)-2-Methyl-1,3-Dioxolan-4-yl)Methoxy)Phenyl)Piperazine]",IC50,[1]; [9],22 nM
same,"Solubility, PBS pH 4.0",[2],169.3 μM
same,"Solubility, PBS pH 7.4",[2],11.7 μM
same,anti-Hh activity in Sufu−/− MEFs,[8],completely abolished
same,Microsomal Stability T1/2,[3],50.7 min
same,Microsomal Stability Clint,[3],13.7 ± 0.4 µL/min/mg
same,GI50,[5]; human,27300 nM
same,IC50,[6]; [11],1530 ± 200 nM
same,IC50,[6]; [12],2700 ± 200 nM
C[C@]1(c2ccc(Cl)cc2Cl)OC[C@@H](COc2ccc(N3CCN(C(=O)c4ccncc4)CC3)cc2)O1 [Compound 7],IC50,[1]; [9],570 nM
C[C@]1(c2ccc(Cl)cc2Cl)OC[C@@H](COc2ccc(N3CCN(C(=O)CCc4ccc(O)cc4)CC3)cc2)O1 [Compound 13],IC50,[1]; [9],260 ± 30 nM
"N-(4-(4-(((2S,4R)-2-(2,4-Dichlorophenyl)-2-Methyl-1,3-Dioxolan-4-yl)Methoxy)Phenyl)Piperazin-l-yl)-2-((4-hydroxyphenyl)methylene)Hydrazinecarboxamide [Compound 19]",IC50,[1]; [10],960 nM
same,Microsomal Stability T1/2,[4],11.4 ± 0.2 min
same,"Solubility, PBS pH 4.0",pH 4,0.05 μM
same,"Solubility, PBS pH 7.4",,0.02 μM
C[C@]1(c2ccc(Cl)cc2Cl)OCC(COc2ccc(N3CCN(CCCc4cccc(O)c4)CC3)cc2)O1 (some centres unmarked) [Compound 23],IC50,[1]; [9],870 nM
same,solubility,"[2]; pH 4, aqueous buffer",0.13 µM
same,solubility,"[2]; pH 7.4, aqueous buffer",0.02 µM
same,half-life,[3],14 min
same,microsomal CLint,[3],50 ± 0.8 µL/min/mg
C[C@]1(c2ccc(Cl)cc2Cl)OC[C@@H](COc2ccc(N3CCN(C(=O)c4cccnc4)CC3)cc2)O1 [Compound 6],IC50,[1]; [9],1300 ± 310 nM

# — patent US12435067B2, “Truncated itraconazole analogues and methods of use thereof” (University of Connecticut, priority 2019, dated 2025)
